Counter-ions that a name gives are not always drawn.

What is called IC50 is the concentration that inhibits the measured activity by half.

This test deals with Human BACE-1 (Homo sapiens, UniProt P56817). The experiment in a line: Test 1: Inhibition of Human BACE-1. Type of test: biochemical. Particulars: Test 1; recombinant BACE-1 (extracellular domain), acetate buffer pH 4.5, 1 hour with test compound at room temperature, fluorescence-quenched peptide substrate; read-out: Bace IC50.
Human BACE-1, sequence (P56817 46-457 limits assumed): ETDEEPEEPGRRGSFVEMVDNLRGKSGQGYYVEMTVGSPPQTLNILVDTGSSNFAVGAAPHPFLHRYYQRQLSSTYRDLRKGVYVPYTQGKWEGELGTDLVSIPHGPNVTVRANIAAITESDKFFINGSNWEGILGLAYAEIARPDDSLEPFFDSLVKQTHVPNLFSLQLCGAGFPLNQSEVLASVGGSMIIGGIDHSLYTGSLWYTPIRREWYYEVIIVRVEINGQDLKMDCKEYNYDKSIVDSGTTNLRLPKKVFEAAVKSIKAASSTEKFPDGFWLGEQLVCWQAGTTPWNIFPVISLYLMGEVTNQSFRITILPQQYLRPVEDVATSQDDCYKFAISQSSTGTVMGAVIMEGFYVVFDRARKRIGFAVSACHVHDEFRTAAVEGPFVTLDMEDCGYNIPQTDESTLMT
Regarding `COc1ccc(C(=O)Nc2cccc([C@]3(C)COCC(N)=N3)c2)nc1` [Example 30, 5-Methoxy-pyridine-2-carboxylic acid [3-((R)-5-amino-3-methyl-3,6-dihydro-2H-[1,4]oxazin-3-yl)-phenyl]-amide], the IC50 is 330 nM. With `NC1=NC(CF)(c2cccc(NC(=O)c3ccc(Br)cn3)c2)COC1` (stereo not shown) [Example 31, 5-Bromo-pyridine-2-carboxylic acid [3-(5-amino-3-fluoromethyl-3,6-dihydro-2H-[1,4]oxazin-3-yl)-phenyl]-amide], the IC50 is 160 nM. Take `NC1=NC(CF)(c2cc(Cl)cc(NC(=O)c3ccc(Br)cn3)c2)COC1` (stereo not shown) [Example 32, 5-Bromo-pyridine-2-carboxylic acid [3-(5-amino-3-fluoromethyl-3,6-dihydro-2H-[1,4]oxazin-3-yl)-5-chloro-phenyl]-amide]: the IC50 came to 1400 nM. As for `NC1=N[C@](CF)(c2cccc(NC(=O)c3ccc(Br)cn3)c2)COC1` [Example 33, 5-Bromo-pyridine-2-carboxylic acid [3-((R)-5-amino-3-fluoromethyl-3,6-dihydro-2H-[1,4]oxazin-3-yl)-phenyl]-amide], the IC50 is 130 nM. The figure for `NC1=NC(c2cccc(NC(=O)c3ccc(Br)cn3)c2)(C(F)F)COC1` (stereo not shown) [Example 34, 5-Bromo-pyridine-2-carboxylic acid [3-(5-amino-3-difluoromethyl-3,6-dihydro-2H-[1,4]oxazin-3-yl)-phenyl]-amide hydrochloride] is 560 nM; for `N#Cc1ccc(C(=O)Nc2cccc(C3(C(F)F)COCC(N)=N3)c2)nc1` (stereo not shown) [Example 36, 5-Cyano-pyridine-2-carboxylic acid [3-(5-amino-3-difluoromethyl-3,6-dihydro-2H-[1,4]oxazin-3-yl)-phenyl]-amide] it is 350 nM; for `Cc1cc(Br)cnc1C(=O)Nc1cccc(C2(C(F)F)COCC(N)=N2)c1` (stereo not shown) [Example 37, 5-Bromo-3-methyl-pyridine-2-carboxylic acid [3-(5-amino-3-difluoromethyl-3,6-dihydro-2H-[1,4]oxazin-3-yl)-phenyl]-amide] it is 120 nM. The figure for `NC1=NC(c2cccc(NC(=O)c3ccc(C(F)(F)F)cn3)c2)(C(F)F)COC1` (stereo not shown) [Example 39, 5-Trifluoromethyl-pyridine-2-carboxylic acid [3-(5-amino-3-difluoromethyl-3,6-dihydro-2H-[1,4]oxazin-3-yl)-phenyl]-amide] is 780 nM; for `NC1=NC(c2cccc(NC(=O)c3ncc(C(F)(F)F)cc3Cl)c2)(C(F)F)COC1` (stereo not shown) [Example 40, 3-Chloro-5-trifluoromethyl-pyridine-2-carboxylic acid [3-(5-amino-3-difluoromethyl-3,6-dihydro-2H-[1,4]oxazin-3-yl)-phenyl]amide] it is 1000 nM; for `Cc1cc(Cl)cnc1C(=O)Nc1cccc(C2(C(F)F)COCC(N)=N2)c1` (stereo not shown) [Example 41, 5-Chloro-3-methyl-pyridine-2-carboxylic acid [3-(5-amino-3-difluoromethyl-3,6-dihydro-2H-[1,4]oxazin-3-yl)-phenyl]-amide] it is 350 nM. `NC1=NC(c2cc(NC(=O)c3ccc(Br)cn3)ccc2F)(C(F)F)COC1` (stereo not shown) [Example 42, 5-Bromo-pyridine-2-carboxylic acid [3-(5-amino-3-difluoromethyl-3,6-dihydro-2H-[1,4]oxazin-3-yl)-4-fluoro-phenyl]-amide hydrochloride]: the IC50 was 56 nM. The value for `NC1=NC(c2cc(NC(=O)c3ccc(Cl)cn3)ccc2F)(C(F)F)COC1` (stereo not shown) [Example 43, 5-Chloro-pyridine-2-carboxylic acid [3-(5-amino-3-difluoromethyl-3,6-dihydro-2H-[1,4]oxazin-3-yl)-4-fluoro-phenyl]-amide] was 62 nM; that for `Cc1cc(Cl)cnc1C(=O)Nc1ccc(F)c([C@]2(C(F)F)COCC(N)=N2)c1` [Example 44, 5-Chloro-3-methyl-pyridine-2-carboxylic acid [3-((R)-5-amino-3-difluoromethyl-3,6-dihydro-2H-[1,4]oxazin-3-yl)-4-fluoro-phenyl]-amide] was 19 nM. For `Cc1cc(Br)cnc1C(=O)Nc1ccc(F)c([C@]2(C(F)F)COCC(N)=N2)c1` [Example 45, 5-Bromo-3-methyl-pyridine-2-carboxylic acid [3-((R)-5-amino-3-difluoromethyl-3,6-dihydro-2H-[1,4]oxazin-3-yl)-4-fluoro-phenyl]amide], the IC50 came to 16 nM. Regarding `NC1=N[C@@](c2cc(NC(=O)c3ncc(C(F)(F)F)cc3Cl)ccc2F)(C(F)F)COC1` [Example 46, 3-Chloro-5-trifluoromethyl-pyridine-2-carboxylic acid [3-((R)-5-amino-3-difluoromethyl-3,6-dihydro-2H-[1,4]oxazin-3-yl)-4-fluoro-phenyl]-amide], the IC50 was 71 nM. For `NC1=N[C@@](c2cc(NC(=O)c3ccc(C(F)(F)F)cn3)ccc2F)(C(F)F)COC1` [Example 47, 5-Trifluoromethyl-pyridine-2-carboxylic acid [3-((R)-5-amino-3-difluoromethyl-3,6-dihydro-2H-[1,4]oxazin-3-yl)-4-fluoro-phenyl]-amide], the IC50 turned out to be 56 nM.

For the compound `Cc1cnc(C(=O)Nc2ccc(F)c([C@]3(C(F)F)COCC(N)=N3)c2)cn1` [Example 48, 5-Methyl-pyrazine-2-carboxylic acid [3-((R)-5-amino-3-difluoromethyl-3,6-dihydro-2H-[1,4]oxazin-3-yl)-4-fluoro-phenyl]-amide], the IC50 was determined as 550 nM. In the case of `COc1ccc(C(=O)Nc2ccc(F)c([C@]3(C(F)F)COCC(N)=N3)c2)nc1` [Example 49, 5-Methoxy-pyridine-2-carboxylic acid [3-((R)-5-amino-3-difluoromethyl-3,6-dihydro-2H-[1,4]oxazin-3-yl)-4-fluoro-phenyl]-amide], the IC50 worked out at 50 nM. On to `C[C@@]1(c2cc(Br)cc(NC(=O)c3ncc(Br)cn3)c2)COCC(N)=N1` [Example 51, 5-Bromo-pyrimidine-2-carboxylic acid [3-((R)-5-amino-3-methyl-3,6-dihydro-2H-[1,4]oxazin-3-yl)-5-bromo-phenyl]-amide hydrochloride], for which the IC50 stood at 230 nM. In the case of `C[C@@]1(c2cc(Br)cc(NC(=O)c3ccc(Br)cn3)c2)COCC(N)=N1` [Example 52, 5-Bromo-pyridine-2-carboxylic acid [3-((R)-5-amino-3-methyl-3,6-dihydro-2H-[1,4]oxazin-3-yl)-5-bromo-phenyl]-amide], the IC50 stood at 180 nM. For the compound `C[C@@]1(c2cc(Br)cc(NC(=O)c3ccc(C#N)cn3)c2)COCC(N)=N1` [Example 53, 5-Cyano-pyridine-2-carboxylic acid [3-((R)-5-amino-3-methyl-3,6-dihydro-2H-[1,4]oxazin-3-yl)-5-bromo-phenyl]-amide], the IC50 was found to be 380 nM.

As for `Cc1cc(Br)cnc1C(=O)Nc1cc(Br)cc([C@]2(C)COCC(N)=N2)c1` [Example 55, 5-Bromo-3-methyl-pyridine-2-carboxylic acid [3-((R)-5-amino-3-methyl-3,6-dihydro-2H-[1,4]oxazin-3-yl)-5-bromo-phenyl]-amide], the IC50 was 84 nM. `C[C@@]1(c2cc(Br)cc(NC(=O)c3ccc(Cl)cn3)c2)COCC(N)=N1` [Example 56, 5-Chloro-pyridine-2-carboxylic acid [3-((R)-5-amino-3-methyl-3,6-dihydro-2H-[1,4]oxazin-3-yl)-5-bromo-phenyl]-amide]: the IC50 turned out to be 101 nM. With `Cc1cnc(C(=O)Nc2cc(Br)cc([C@]3(C)COCC(N)=N3)c2)cn1` [Example 57, 5-Methyl-pyrazine-2-carboxylic acid [3-((R)-5-amino-3-methyl-3,6-dihydro-2H-[1,4]oxazin-3-yl)-5-bromo-phenyl]-amide], the IC50 worked out at 1700 nM.

As to `Cc1nc(C(=O)Nc2cc(Br)cc([C@]3(C)COCC(N)=N3)c2)c(C)o1` [Example 58, 2,5-Dimethyl-oxazole-4-carboxylic acid [3-((R)-5-amino-3-methyl-3,6-dihydro-2H-[1,4]oxazin-3-yl)-5-bromo-phenyl]amide], the concentration for half-maximal inhibition (IC50) was determined as 780 nM. Turning to `Cc1nc(C(=O)Nc2cc(Br)cc([C@]3(C)COCC(N)=N3)c2)co1` [Example 59, 2-Methyl-oxazole-4-carboxylic acid [3-((R)-5-amino-3-methyl-3,6-dihydro-2H-[1,4]oxazin-3-yl)-5-bromo-phenyl]-amide], the IC50 amounted to 240 nM. The figure for `Cc1cnc(C(=O)Nc2ccc(F)c(C3(C)COCC(N)=N3)c2)cn1` (stereo not shown) [Example 61, 5-Methyl-pyrazine-2-carboxylic acid [3-(5-amino-3-methyl-3,6-dihydro-2H-[1,4]oxazin-3-yl)-4-fluoro-phenyl]-amide hydrochloride] is 1970 nM; for `CC1(c2cc(NC(=O)c3ccc(C#N)cn3)ccc2F)COCC(N)=N1` (stereo not shown) [Example 62, 5-Cyano-pyridine-2-carboxylic acid [3-(5-amino-3-methyl-3,6-dihydro-2H-[1,4]oxazin-3-yl)-4-fluoro-phenyl]-amide hydrochloride] it is 95 nM. Turning to `CC1(c2cc(NC(=O)c3ccc(C(N)=O)cn3)ccc2F)COCC(N)=N1` (stereo not shown) [Example 65, Pyridine-2,5-dicarboxylic acid 5-amide 2-{[3-(5-amino-3-methyl-3,6-dihydro-2H-[1,4]oxazin-3-yl)-4-fluoro-phenyl]-amide} hydrochloride], the IC50 is 1200 nM. `C[C@@]1(c2cc(NC(=O)c3ccc(C#N)cn3)ccc2F)CO[C@@](C)(C(F)(F)F)C(N)=N1` [Example 73, 5-Cyano-pyridine-2-carboxylic acid [3-((3R,6R)-5-amino-3,6-dimethyl-6-trifluoro-methyl-3,6-dihydro-2H-[1,4]oxazin-3-yl)-4-fluoro-phenyl]-amide hydrochloride]: the IC50 was 26 nM. Turning to `COCCOc1cnc(C(=O)Nc2ccc(F)c([C@]3(C)CO[C@@](C)(C(F)(F)F)C(N)=N3)c2)cn1` [Example 74, 5-(2-Methoxy-ethoxy)-pyrazine-2-carboxylic acid [3-((3R,6R)-5-amino-3,6-dimethyl-6-trifluoromethyl-3,6-dihydro-2H-[1,4]oxazin-3-yl)-4-fluoro-phenyl]-amide hydrochloride], the IC50 was found to be 79 nM.
